Measured values from patent US20260297085A1, “1 H-PYRROLO[2,3-B]PYRIDIN-4-YL]-2-OXOPYRROLIDINE-3-CARBONITRILE DERIVATIVES AS TYROSINE KINASE 2 (TYK2) INHIBITORS FOR THE TREATMENT OF INFLAMMATORY DISEASES” (BIOGEN MA INC., priority 2023, published 2026).

Assays:
[1] = target: JAK2 kinase activity on STAT5 in TF1 cells (Homo sapiens, UniProt O60674); test: pSTAT5 cell assay (MSD; TF1 cells, 30 ng/mL IL-3 stimulation); type: cell-based; details: 30 ng/mL IL-3, 15 minutes
Procedure, shortened: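 Serum-starved TF1 cells with native JAK2/STAT5 were pretreated 1 h with compound (10-point four-fold dilutions from 10 μM), then stimulated 15 min with 30 ng/mL IL-3. pSTAT5 in lysates quantified by MSD immunoassay; normalized percent activity fitted to a 4-parameter logistic curve for IC50.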

[2] = target: T1, human JAK2 kinase domain (JH1) (Homo sapiens, UniProt O60674); test: JH1 biochemical assay for JAK2 (ADP-Glo kinase assay, recombinant JH1 catalytic domain, JAK3-974 peptide, 15 μM ATP); details: JAK2 JH1, ADP-Glo
T1 construct: recombinantly generated catalytic kinase (also known as JH1) domain of human JAK1, JAK2, JAK3 and TYK2
Procedure, shortened: (§1)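 ADP-Glo luminescence with 50 μM peptide and 100 min reactions: JAK1 4 nM with JAK3-342 peptide; JAK2, JAK3 and TYK2 at 0.2, 0.3 and 2 nM with JAK3-974 peptide. Compounds tested from 10 or 1 μM top, 11 points, 3-fold. IC50 from a 4-parameter logistic fit of normalized activity.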

[3] = target: T2, human TYK2 kinase domain (JH1) (Homo sapiens, UniProt P29597); test: JH1 biochemical assay for TYK2 (ADP-Glo kinase assay, recombinant JH1 catalytic domain, JAK3-974 peptide, 10 μM ATP); details: TYK2 JH1, ADP-Glo
T2 construct: recombinantly generated catalytic kinase (also known as JH1) domain of human JAK1, JAK2, JAK3 and TYK2
T2 sequence (P29597 897-1176 limits assumed): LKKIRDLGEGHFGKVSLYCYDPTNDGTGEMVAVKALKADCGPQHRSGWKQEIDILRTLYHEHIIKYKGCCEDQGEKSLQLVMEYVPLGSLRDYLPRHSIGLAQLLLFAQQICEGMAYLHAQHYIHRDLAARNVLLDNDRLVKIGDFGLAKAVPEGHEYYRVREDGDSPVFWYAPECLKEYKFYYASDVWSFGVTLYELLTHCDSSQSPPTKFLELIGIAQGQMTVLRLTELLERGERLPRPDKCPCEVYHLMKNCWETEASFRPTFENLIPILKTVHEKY
Procedure, shortened: as §1

[4] = target: Tyk2 kinase activity on STAT4 in NK92 cells (Homo sapiens, UniProt P29597); test: pSTAT4 cell assay (MSD; NK92 cells, 30 ng/mL IL2 stimulation); type: cell-based; details: 30 ng/mL IL2, 15 minutes
Procedure, shortened: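 IC50 values derive from 4-parameter logistic fits of normalized percent activity against log compound concentration. Phospho-STAT was measured by MSD with anti-STAT4 antibodies after 15 min of 30 ng/mL IL2 in serum-starved NK92 cells pretreated 1 hr with compound.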

[5] = target: JAK1 kinase activity on STAT3 in TF1 cells (Homo sapiens, UniProt P23458); test: pSTAT3 cell assay (MSD; TF1 cells, 30 ng/mL IL-6 stimulation); type: cell-based; details: 30 ng/mL IL-6, 15 minutes
Procedure, shortened: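 Serum-starved TF1 cells were pretreated with compound for 1 hour (10-point, four-fold dilutions from 10 μM), then stimulated with IL-6 for 15 minutes. Lysates were assayed for pSTAT3 by MSD with anti-STAT3 antibodies; IC50 came from a 4-parameter logistic fit of normalized percent activity.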

[6] = target: T3, human JAK3 kinase domain (JH1) (Homo sapiens, UniProt P52333); test: JH1 biochemical assay for JAK3 (ADP-Glo kinase assay, recombinant JH1 catalytic domain, JAK3-974 peptide, 4 μM ATP); details: JAK3 JH1, ADP-Glo
T3 construct: recombinantly generated catalytic kinase (also known as JH1) domain of human JAK1, JAK2, JAK3 and TYK2
Procedure, shortened: as §1

[7] = target: T4, human JAK1 kinase domain (JH1) (Homo sapiens, UniProt P23458); test: JH1 biochemical assay for JAK1 (ADP-Glo kinase assay, recombinant JH1 catalytic domain, JAK3-342 peptide, 35 μM ATP); details: JAK1 JH1, ADP-Glo
T4 construct: recombinantly generated catalytic kinase (also known as JH1) domain of human JAK1, JAK2, JAK3 and TYK2
Procedure, shortened: as §1

Chain of JAK1 kinase activity on STAT3 in TF1 cells (P23458 whole entry): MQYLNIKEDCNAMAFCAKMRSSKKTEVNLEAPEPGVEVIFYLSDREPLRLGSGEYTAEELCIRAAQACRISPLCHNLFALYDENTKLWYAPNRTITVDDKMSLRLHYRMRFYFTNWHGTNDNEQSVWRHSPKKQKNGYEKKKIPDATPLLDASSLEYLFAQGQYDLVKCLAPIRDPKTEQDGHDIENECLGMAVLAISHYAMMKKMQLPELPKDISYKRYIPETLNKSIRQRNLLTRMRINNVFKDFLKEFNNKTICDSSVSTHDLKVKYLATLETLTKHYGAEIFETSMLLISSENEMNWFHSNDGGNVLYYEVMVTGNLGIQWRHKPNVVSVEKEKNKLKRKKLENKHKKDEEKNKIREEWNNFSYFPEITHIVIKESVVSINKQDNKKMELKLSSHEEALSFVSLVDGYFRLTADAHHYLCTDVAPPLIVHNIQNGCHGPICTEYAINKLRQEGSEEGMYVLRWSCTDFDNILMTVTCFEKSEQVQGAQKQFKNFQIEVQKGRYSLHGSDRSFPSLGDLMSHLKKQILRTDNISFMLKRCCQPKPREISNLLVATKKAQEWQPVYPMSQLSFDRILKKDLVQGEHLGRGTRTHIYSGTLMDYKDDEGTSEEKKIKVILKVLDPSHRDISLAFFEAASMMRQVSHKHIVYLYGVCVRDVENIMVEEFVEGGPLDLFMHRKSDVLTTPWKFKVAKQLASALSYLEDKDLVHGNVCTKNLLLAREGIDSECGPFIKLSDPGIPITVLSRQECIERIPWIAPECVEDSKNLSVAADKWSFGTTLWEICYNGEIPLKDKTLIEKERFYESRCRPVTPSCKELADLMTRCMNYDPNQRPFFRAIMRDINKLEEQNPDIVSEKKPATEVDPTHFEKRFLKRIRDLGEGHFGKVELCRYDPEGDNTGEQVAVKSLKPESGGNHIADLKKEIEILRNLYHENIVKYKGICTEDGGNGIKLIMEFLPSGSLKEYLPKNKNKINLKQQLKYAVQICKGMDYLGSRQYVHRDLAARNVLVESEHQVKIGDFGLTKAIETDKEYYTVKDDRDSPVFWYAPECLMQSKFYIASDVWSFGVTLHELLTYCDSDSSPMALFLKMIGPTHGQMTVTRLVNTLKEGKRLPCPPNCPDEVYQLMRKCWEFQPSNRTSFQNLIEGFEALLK
T4 sequence (P23458 875-1153 limits assumed): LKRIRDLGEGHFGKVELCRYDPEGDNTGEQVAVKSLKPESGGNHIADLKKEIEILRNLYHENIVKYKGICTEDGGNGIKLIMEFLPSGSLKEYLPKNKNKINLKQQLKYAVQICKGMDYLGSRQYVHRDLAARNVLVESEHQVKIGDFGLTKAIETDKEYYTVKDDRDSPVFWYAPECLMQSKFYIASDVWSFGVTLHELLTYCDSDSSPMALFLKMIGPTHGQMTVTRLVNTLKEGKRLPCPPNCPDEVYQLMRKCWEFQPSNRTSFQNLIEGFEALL
T3 sequence (P52333 822-1111 limits assumed): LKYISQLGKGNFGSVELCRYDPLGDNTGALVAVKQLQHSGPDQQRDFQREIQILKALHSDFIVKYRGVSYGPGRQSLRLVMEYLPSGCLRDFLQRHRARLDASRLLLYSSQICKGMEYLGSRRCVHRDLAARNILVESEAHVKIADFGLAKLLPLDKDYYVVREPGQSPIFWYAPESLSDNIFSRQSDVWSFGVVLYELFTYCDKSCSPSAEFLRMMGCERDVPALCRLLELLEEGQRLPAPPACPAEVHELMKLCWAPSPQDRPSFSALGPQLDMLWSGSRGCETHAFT
Chain of JAK2 kinase activity on STAT5 in TF1 cells (O60674 whole entry): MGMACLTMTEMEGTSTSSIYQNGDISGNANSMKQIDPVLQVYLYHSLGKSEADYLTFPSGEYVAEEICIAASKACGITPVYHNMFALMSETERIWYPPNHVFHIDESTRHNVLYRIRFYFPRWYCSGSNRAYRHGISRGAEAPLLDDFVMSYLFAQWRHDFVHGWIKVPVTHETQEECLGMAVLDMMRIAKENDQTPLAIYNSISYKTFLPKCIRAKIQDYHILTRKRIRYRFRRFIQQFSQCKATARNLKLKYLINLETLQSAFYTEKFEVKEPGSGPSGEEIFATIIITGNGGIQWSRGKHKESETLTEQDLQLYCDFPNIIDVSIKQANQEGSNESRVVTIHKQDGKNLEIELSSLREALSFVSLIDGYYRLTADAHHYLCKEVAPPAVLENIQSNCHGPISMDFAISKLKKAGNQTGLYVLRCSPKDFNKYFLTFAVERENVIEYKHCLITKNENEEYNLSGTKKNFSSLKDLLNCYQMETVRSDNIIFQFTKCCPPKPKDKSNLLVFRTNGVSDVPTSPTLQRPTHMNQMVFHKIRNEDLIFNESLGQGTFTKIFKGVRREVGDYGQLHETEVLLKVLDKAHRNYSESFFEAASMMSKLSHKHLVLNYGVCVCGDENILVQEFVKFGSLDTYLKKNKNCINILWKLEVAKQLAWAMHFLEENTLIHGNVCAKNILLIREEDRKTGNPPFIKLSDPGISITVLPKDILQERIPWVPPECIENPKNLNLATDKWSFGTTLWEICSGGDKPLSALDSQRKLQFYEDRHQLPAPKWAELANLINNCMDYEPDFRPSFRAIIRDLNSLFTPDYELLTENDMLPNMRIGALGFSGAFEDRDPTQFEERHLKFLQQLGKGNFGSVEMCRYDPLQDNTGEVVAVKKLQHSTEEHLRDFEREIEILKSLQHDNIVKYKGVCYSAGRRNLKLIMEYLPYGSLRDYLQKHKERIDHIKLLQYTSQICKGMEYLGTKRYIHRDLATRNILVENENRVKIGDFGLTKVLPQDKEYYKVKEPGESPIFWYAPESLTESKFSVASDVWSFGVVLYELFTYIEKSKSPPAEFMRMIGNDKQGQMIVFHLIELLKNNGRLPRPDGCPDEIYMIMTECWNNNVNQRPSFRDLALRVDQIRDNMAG
Chain of Tyk2 kinase activity on STAT4 in NK92 cells (P29597 whole entry): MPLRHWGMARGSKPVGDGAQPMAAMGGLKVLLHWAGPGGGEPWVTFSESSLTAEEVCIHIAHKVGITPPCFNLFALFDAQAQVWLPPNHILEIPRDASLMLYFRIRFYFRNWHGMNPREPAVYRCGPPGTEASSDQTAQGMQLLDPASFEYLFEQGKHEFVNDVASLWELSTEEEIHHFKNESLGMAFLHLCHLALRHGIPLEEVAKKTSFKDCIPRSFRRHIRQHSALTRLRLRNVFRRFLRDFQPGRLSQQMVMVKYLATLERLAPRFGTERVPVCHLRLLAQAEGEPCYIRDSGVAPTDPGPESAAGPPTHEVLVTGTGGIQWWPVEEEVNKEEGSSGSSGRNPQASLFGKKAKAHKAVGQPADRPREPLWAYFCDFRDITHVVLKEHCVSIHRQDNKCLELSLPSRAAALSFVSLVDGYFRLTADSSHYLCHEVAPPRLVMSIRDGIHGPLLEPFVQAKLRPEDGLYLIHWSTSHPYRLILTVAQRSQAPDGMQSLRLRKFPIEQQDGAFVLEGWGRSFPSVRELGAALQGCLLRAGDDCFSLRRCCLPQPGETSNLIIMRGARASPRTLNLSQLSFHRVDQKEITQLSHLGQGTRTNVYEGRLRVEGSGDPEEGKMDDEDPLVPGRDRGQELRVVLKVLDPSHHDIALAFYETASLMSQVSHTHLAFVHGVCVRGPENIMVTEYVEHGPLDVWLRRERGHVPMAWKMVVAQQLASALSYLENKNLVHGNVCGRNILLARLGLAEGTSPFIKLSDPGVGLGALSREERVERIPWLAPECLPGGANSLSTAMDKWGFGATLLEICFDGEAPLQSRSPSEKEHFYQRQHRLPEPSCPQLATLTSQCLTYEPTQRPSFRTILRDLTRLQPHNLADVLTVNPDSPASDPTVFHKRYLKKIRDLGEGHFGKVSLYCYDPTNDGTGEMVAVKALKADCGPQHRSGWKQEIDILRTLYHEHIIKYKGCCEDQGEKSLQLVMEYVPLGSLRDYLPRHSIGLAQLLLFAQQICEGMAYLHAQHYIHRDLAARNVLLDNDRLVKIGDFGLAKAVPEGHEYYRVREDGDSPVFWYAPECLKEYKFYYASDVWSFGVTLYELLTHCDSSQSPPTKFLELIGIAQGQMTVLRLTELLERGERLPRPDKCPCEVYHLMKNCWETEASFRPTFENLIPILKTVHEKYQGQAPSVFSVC
T1 sequence (O60674 849-1124 limits assumed): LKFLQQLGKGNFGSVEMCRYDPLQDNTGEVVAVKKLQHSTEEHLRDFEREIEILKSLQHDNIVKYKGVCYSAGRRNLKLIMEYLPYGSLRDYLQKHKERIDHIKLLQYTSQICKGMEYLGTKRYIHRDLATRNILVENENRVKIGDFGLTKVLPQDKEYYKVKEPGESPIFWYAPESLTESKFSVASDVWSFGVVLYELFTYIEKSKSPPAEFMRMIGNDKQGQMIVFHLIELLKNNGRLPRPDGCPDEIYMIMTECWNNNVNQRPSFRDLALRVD

SMILES | IC50 [1] | IC50 [2] | IC50 [3] | IC50 [4] | IC50 [5] | IC50 [6] | IC50 [7]
C[C@@H]1CN(c2nc(-c3cnn(C4(C)COC4)c3)cn3ncc(F)c23)C(=O)[C@]1(C#N)C1CC1 [Example 300, (3R,4S)-3-cyclopropyl-1-(3-fluoro-6-(1-(3-methyloxetan-3-yl)-1H-pyrazol-4-yl)pyrazolo[1,5-a]pyrazin-4-yl)-4-methyl-2-oxopyrrolidine-3-carbonitrile] | 1000 to 5000 nM | 100 to 1000 nM | < 5 nM | > 100 nM | 100 to 1000 nM | < 100 nM | < 100 nM
C[C@@H]1CN(c2nc(-c3cnn(CC4(C#N)CC4)c3)cn3ncc(F)c23)C(=O)[C@]1(C#N)C1CC1 [Example 302, (3R,4S)-1-(6-(1-((1-cyanocyclopropyl)methyl)-1H-pyrazol-4-yl)-3-fluoropyrazolo[1,5-a]pyrazin-4-yl)-3-cyclopropyl-4-methyl-2-oxopyrrolidine-3-carbonitrile] | 1000 to 5000 nM | < 100 nM | < 5 nM | 50 to 100 nM | 100 to 1000 nM | < 100 nM | < 100 nM
C[C@@H]1CN(c2nc(-c3cnn(CC4COC4)c3)cn3ncc(F)c23)C(=O)[C@]1(C#N)C1CC1 [Example 304, (3R,4S)-3-cyclopropyl-1-(3-fluoro-6-(1-(oxetan-3-ylmethyl)-1H-pyrazol-4-yl)pyrazolo[1,5-a]pyrazin-4-yl)-4-methyl-2-oxopyrrolidine-3-carbonitrile] | 1000 to 5000 nM | < 100 nM | < 5 nM | 50 to 100 nM | 100 to 1000 nM | < 100 nM | < 100 nM
C[C@@H]1CN(c2nc(-c3cnn([C@H]4C[C@@](C)(C#N)C4)c3)cn3ncc(F)c23)C(=O)[C@]1(C#N)C1CC1 [Example 307, (3R,4S)-1-(6-(1-((1s,3S)-3-cyano-3-methylcyclobutyl)-1H-pyrazol-4-yl)-3-fluoropyrazolo[1,5-a]pyrazin-4-yl)-3-cyclopropyl-4-methyl-2-oxopyrrolidine-3-carbonitrile] | 1000 to 5000 nM | < 100 nM | < 5 nM | 50 to 100 nM | 100 to 1000 nM | < 100 nM | < 100 nM
C[C@@H]1CN(c2nc(-c3cnn([C@H]4C[C@@](F)(C#N)C4)c3)cn3ncc(F)c23)C(=O)[C@]1(C#N)C1CC1 [Example 309, (3R,4S)-1-(6-(1-((1r,3R)-3-cyano-3-fluorocyclobutyl)-1H-pyrazol-4-yl)-3-fluoropyrazolo[1,5-a]pyrazin-4-yl)-3-cyclopropyl-4-methyl-2-oxopyrrolidine-3-carbonitrile] | 1000 to 5000 nM | < 100 nM | < 5 nM | > 100 nM | 5000 to 10000 nM | < 100 nM | < 100 nM
C[C@@H]1CN(c2ccnn3cc(-c4cnn(C5CC6(C5)CN(C)C6)c4)cc23)C(=O)[C@]1(C#N)C1CC1 [Example 315, (3R,4S)-3-cyclopropyl-4-methyl-1-(6-(1-(2-methyl-2-azaspiro[3.3]heptan-6-yl)-1H-pyrazol-4-yl)pyrrolo[1,2-b]pyridazin-4-yl)-2-oxopyrrolidine-3-carbonitrile] | 1000 to 5000 nM | 100 to 1000 nM | < 5 nM | 50 to 100 nM | 1000 to 5000 nM | < 100 nM | 100 to 1000 nM
C[C@@H]1CN(c2ccnn3cc(-c4cnn(C5CN(C)C5)c4)cc23)C(=O)[C@]1(C#N)C1CC1 [Example 316, (3R,4S)-3-cyclopropyl-4-methyl-1-(6-(1-(1-methylazetidin-3-yl)-1H-pyrazol-4-yl)pyrrolo[1,2-b]pyridazin-4-yl)-2-oxopyrrolidine-3-carbonitrile] | 5000 to 10000 nM | 100 to 1000 nM | < 5 nM | 50 to 100 nM | 5000 to 10000 nM | 100 to 1000 nM | 100 to 1000 nM

Results, then the compound that gave them:

IC50 [1] | IC50 [2] | IC50 [3] | IC50 [4] | IC50 [5] | IC50 [6] | IC50 [7] | SMILES
100 to 1000 nM | < 100 nM | < 5 nM | 20 to 50 nM | 100 to 1000 nM | < 100 nM | < 100 nM | C[C@@H]1CN(c2nc(-c3cnn(-c4ccncc4)c3)cn3nccc23)C(=O)[C@]1(C#N)C1CC1 [Example 295, (3R,4S)-3-cyclopropyl-4-methyl-2-oxo-1-(6-(1-(pyridin-4-yl)-1H-pyrazol-4-yl)pyrazolo[1,5-a]pyrazin-4-yl)pyrrolidine-3-carbonitrile]
1000 to 5000 nM | 100 to 1000 nM | < 5 nM | 20 to 50 nM | 100 to 1000 nM | < 100 nM | < 100 nM | C[C@@H]1CN(c2nc(-c3cnn(-c4ccccn4)c3)cn3nccc23)C(=O)[C@]1(C#N)C1CC1 [Example 296, (3R,4S)-3-cyclopropyl-4-methyl-2-oxo-1-(6-(1-(pyridin-2-yl)-1H-pyrazol-4-yl)pyrazolo[1,5-a]pyrazin-4-yl)pyrrolidine-3-carbonitrile]
1000 to 5000 nM | < 100 nM | < 5 nM | > 100 nM | 1000 to 5000 nM | < 100 nM | < 100 nM | C[C@@H]1CN(c2nc(-c3cnn(C45CC(C#N)(C4)C5)c3)cn3ncc(F)c23)C(=O)[C@]1(C#N)C1CC1 [Example 297, (3R,4S)-1-(6-(1-(3-cyanobicyclo[1.1.1]pentan-1-yl)-1H-pyrazol-4-yl)-3-fluoropyrazolo[1,5-a]pyrazin-4-yl)-3-cyclopropyl-4-methyl-2-oxopyrrolidine-3-carbonitrile]
100 to 1000 nM | < 100 nM | < 5 nM | 50 to 100 nM | 100 to 1000 nM | < 100 nM | < 100 nM | C[C@@H]1CN(c2nc(-c3cnn(C4CC5(COC5)C4)c3)cn3ncc(F)c23)C(=O)[C@]1(C#N)C1CC1 [Example 298, (3R,4S)-1-(6-(1-(2-oxaspiro[3.3]heptan-6-yl)-1H-pyrazol-4-yl)-3-fluoropyrazolo[1,5-a]pyrazin-4-yl)-3-cyclopropyl-4-methyl-2-oxopyrrolidine-3-carbonitrile]
100 to 1000 nM | < 100 nM | < 5 nM | 50 to 100 nM | 100 to 1000 nM | < 100 nM | < 100 nM | CO[C@H]1C[C@H](n2cc(-c3cn4ncc(F)c4c(N4C[C@@H](C)[C@@](C#N)(C5CC5)C4=O)n3)cn2)C1 [Example 299, (3R,4S)-3-cyclopropyl-1-(3-fluoro-6-(1-((1r,3R)-3-methoxycyclobutyl)-1H-pyrazol-4-yl)pyrazolo[1,5-a]pyrazin-4-yl)-4-methyl-2-oxopyrrolidine-3-carbonitrile]
100 to 1000 nM | < 100 nM | < 5 nM | 50 to 100 nM | 100 to 1000 nM | < 100 nM | < 100 nM | C[C@@H]1CN(c2nc(-c3cnn([C@H]4C[C@@](C)(O)C4)c3)cn3ncc(F)c23)C(=O)[C@]1(C#N)C1CC1 [Example 301, (3R,4S)-3-cyclopropyl-1-(3-fluoro-6-(1-((1s,3 S)-3-hydroxy-3-methylcyclobutyl)-1H-pyrazol-4-yl)pyrazolo[1,5-a]pyrazin-4-yl)-4-methyl-2-oxopyrrolidine-3-carbonitrile]
100 to 1000 nM | < 100 nM | < 5 nM | 50 to 100 nM | 100 to 1000 nM | < 100 nM | < 100 nM | C[C@@H]1CN(c2nc(-c3cnn([C@H]4C[C@](C)(C#N)C4)c3)cn3ncc(F)c23)C(=O)[C@]1(C#N)C1CC1 [Example 308, (3R,4S)-1-(6-(1-((1r,3R)-3-cyano-3-methylcyclobutyl)-1H-pyrazol-4-yl)-3-fluoropyrazolo[1,5-a]pyrazin-4-yl)-3-cyclopropyl-4-methyl-2-oxopyrrolidine-3-carbonitrile]
100 to 1000 nM | < 100 nM | < 5 nM | 20 to 50 nM | 100 to 1000 nM | < 100 nM | < 100 nM | C[C@@H]1CN(c2ccnn3cc(-c4cnn(C5CC6(COC6)C5)c4)cc23)C(=O)[C@]1(C#N)C1CC1 [Example 319, (3R,4S)-1-(6-(1-(2-oxaspiro[3.3]heptan-6-yl)-1H-pyrazol-4-yl)pyrrolo[1,2-b]pyridazin-4-yl)-3-cyclopropyl-4-methyl-2-oxopyrrolidine-3-carbonitrile]
